Data reported in US5849802A, “Fungicidal spirocyclic amines” (American Cyanamid Company, priority 1996, dated 1998).

Assays:
[1] = system: Cercospora beticola; assay: In vivo fungicidal activity: Sugar Beet Cercospora (SBC); conditions: 200 ppm, sprayed before inoculation; note: ranges in brackets are in %
[2] = system: Plasmopara viticola; assay: In vivo fungicidal activity: Grape Downy Mildew (GDM); conditions: 200 ppm, sprayed before inoculation; note: ranges in brackets are in %
[3] = system: Pyricularia grisea f. sp. oryzae; type: in vivo; conditions: 200 ppm, sprayed before inoculation, Rice Blast
[4] = system: Rhizoctonia solani; assay: In vitro fungicidal activity: growth inhibition (RHIZ SO); type: cell-based; conditions: 25 ppm, 3-7 days at 22° C., nutrient broth; note: ranges in brackets are in %
Protocol: (§1) Test compounds are dissolved in acetone then diluted with deionize water (9 parts water: 1 part acetone), and dispersed into cell well plates containing a suspension of ground fungal mycelium in a nutrient broth resulting in a final concentration of 25 ppm of the test compound. Assay plates are incubated for 3-7 days at 22° C. Growth inhibition is measured visually and is rated using the following scale: […]

[5] = system: Pseudocercosporella herpotrichoides; assay: In vitro fungicidal activity: growth inhibition (PSDC HE); type: cell-based; conditions: 25 ppm, 3-7 days at 22° C., nutrient broth; note: ranges in brackets are in %
Protocol: as §1

[6] = system: Venturia inaequalis; assay: In vivo fungicidal activity: Apple Scab (AS); conditions: 200 ppm, sprayed before inoculation; note: ranges in brackets are in %
[7] = system: Alternaria solani; assay: In vivo fungicidal activity: Tomato Early Blight (TEB); conditions: 200 ppm, sprayed before inoculation; note: ranges in brackets are in %
[8] = system: Septoria nodorum; assay: In vivo fungicidal activity: Wheat Septoria nodorum Blotch (WSN); conditions: 200 ppm, sprayed before inoculation
Protocol: Test compounds are dissolved in acetone and diluted with deionized water (95 parts water to 5 parts acetone) containing 0.05% TWEEN 20®, a polyoxyethylene sorbitan monolaurate surfactant manufactured by Atlas Chemical Industries, to give a concentration of 200 ppm.
The plants are sprayed with the test solutions, dried and inoculated with fungi later the same day. When disease symptom development is optimal, the plants are rated for disease control according to the rating scale shown below. Each test contains inoculated treated plants, inoculated untreated plants and a inoculated plants treated with reference fungicides.

[9] = system: Botrytis cinerea; assay: In vivo fungicidal activity: Pepper Botrytis (PB); conditions: 200 ppm, sprayed before inoculation; note: ranges in brackets are in %
[10] = system: Erysiphe graminis f. sp. tritici; assay: In vivo fungicidal activity: Wheat Powdery Mildew (WPM); conditions: 200 ppm, sprayed before inoculation; note: ranges in brackets are in %
[11] = system: Pythium ultimum; assay: In vitro fungicidal activity: growth inhibition (PYTH UL); type: cell-based; conditions: 25 ppm, 3-7 days at 22° C., nutrient broth; note: ranges in brackets are in %
Protocol: as §1

[12] = system: Fusarium oxysporium f. sp. cucumerinum; assay: In vitro fungicidal activity: growth inhibition (FUS OXC); type: cell-based; conditions: 25 ppm, 3-7 days at 22° C., nutrient broth; note: ranges in brackets are in %
Protocol: as §1

SMILES | disease control rating, SBC [1] | disease control rating, GDM [2] | disease control rating, RB [3] | growth inhibition rating, RHIZ SO [4] | growth inhibition rating, PSDC HE [5] | disease control rating, AS [6] | disease control rating, TEB [7] | disease control rating, WSN [8] | disease control rating, PB [9] | disease control rating, WPM [10] | growth inhibition rating, PYTH UL [11] | growth inhibition rating, FUS OXC [12]
CC(C)(C)C1CCC2(CCC(NC3CCCCC3)C2)CC1 (stereo not drawn) [Example 3] | 6 (75-89) | 5 (60-74) | 0 (0) | 0 (0) | 0 (0) | 8 (96-99) | 8 (96-99) | 8 (96-99) | 9 (100) | 8 (96-99) | 1 (1-29) | 0 (0)
CC(C)(C)C1CCC2(CCC(NC3CCCCCC3)C2)CC1 (stereo not drawn) [Example 11] | 5 (60-74) | 6 (75-89) | 0 (0) | 9 (100) | 9 (100) | 7 (90-95) | 5 (60-74) | 6 (75-89) | 8 (96-99) | 6 (75-89) | 0 (0) | 0 (0)
C[C@@H]1CN(C2CCC3(CCC(C(C)(C)C)CC3)C2)C[C@H](C)O1 (stereo partly drawn) [Example 4] | 7 (90-95) | 0 (0) | 0 (0) | 0 (0) | 0 (0) | 0 (0) | 0 (0) | 7 (90-95) | 9 (100) | 9 (100) | 0 (0) | 0 (0)
CC1CCCC(NC2CCC3(CCC(C(C)(C)C)CC3)C2)C1 (stereo not drawn) [Example 6] | 4 (45-59) | 5 (60-74) | 7 (90-95) | 9 (100) | 7 (90-99) | 6 (75-89) | 7 (90-95) | 7 (90-95) | 4 (45-59) | 3 (30-44) | 7 (90-99) | 0 (0)
CC1CC(C)CN(C2CCC3(CCC(C(C)(C)C)CC3)C2)C1 (stereo not drawn) [Example 5] | 7 (90-95) | 5 (60-74) | 0 (0) | 0 (0) | 0 (0) | 6 (75-89) | 0 (0) | 4 (45-59) | 9 (100) | 8 (96-99) | 0 (0) | 0 (0)
CC(C)(C)C1CCC2(CCC(NCc3ccc(Cl)cc3)C2)CC1 (stereo not drawn) [Example 12] | 0 (0) | 0 (0) | 0 (0) | 9 (100) | 9 (100) | 7 (90-95) | 0 (0) | 0 (0) | 7 (90-95) | 5 (60-74) | 0 (0) | 0 (0)
